Series [1] is described as follows: Selectivity index, ratio OF IC50 for rat L6 cells to IC50 for bloodstream form of Trypanosoma brucei rhodesiense STIB900. In kind it is functional.
A short description of series [2]: Binding affinity to poly(dA-dT)n DNA (unknown origin) assessed as change in melting temperature at 0.3 molar ratio of compound:DNA by spectrophotometric analysis.
In series [3] the test system is Trypanosoma brucei rhodesiense. The series is described as follows: Antitrypanosomal activity against bloodstream form of Trypanosoma brucei rhodesiense STIB900 after 70 hrs by Alamar blue assay. In kind it is functional. As to conditions: STIB900, 70 h. On the technique in general: Resazurin is reduced to fluorescent resorufin, in cell work by metabolically active cells.

A short description of series [4]: Cytotoxicity against rat L6 cells assessed as reduction in cell viability after 70 hrs by Alamar blue assay. Format: toxicity.

Usually ΔTm stands for the change in melting temperature against a reference sample. For orientation: IC50 means the concentration at which inhibition is half-maximal.

Structures are written as SMILES. Where only a bound is given, the exact number is not on record here.

Consider `N=C(N)c1ccc2nc(-c3ccc(C(=N)N)o3)[nH]c2c1`, for which the “Ratio IC50” value in series [1] turned out to be 3229. Besides, the ΔTm in series [2] amounted to 10.1 °C. Also, in series [3], the IC50 was determined as 48 nM. Also, the IC50 at 70 h in series [4] turned out to be 150000 nM.
The corresponding values for `N=C(N)c1ccc(-c2nc3cc(C(=N)N)ccc3n2C2CCCCC2)cc1` are >306, 2 °C, 529 nM and > 162000 nM.
For `N=C(N)c1ccc(-c2nc3ccc(C(=N)N)cc3n2O)cc1`, the “Ratio IC50” value in series [1] is >25. Besides, the ΔTm in series [2] came to 1.1 °C. The same compound showed a half-maximal inhibitory concentration (IC50) in series [3] of 8430 nM. In addition, in series [4], the IC50 at 70 h is > 210000 nM.
The matching figures for `CCn1c(-c2ccc(C(=N)N)cc2)nc2cc(C(=N)N)ccc21`: >3234, 5.5 °C, 64 nM and > 207000 nM.
The corresponding values for `CCCn1c(-c2ccc(C(=N)N)cc2)nc2cc(C(=N)N)ccc21` are >4419, 2.5 °C, 31 nM and > 137000 nM.
With `N=C(N)c1ccc2nc(-c3ccc(C(=N)N)s3)[nH]c2c1`, the “Ratio IC50” value in series [1] amounted to 1405. Also, the ΔTm in series [2] turned out to be 25.2 °C. The same compound had an IC50 in series [3] of 19 nM. Moreover, the IC50 at 70 h in series [4] was 26700 nM.
The matching figures for `N=C(N)c1ccc(-c2nc3cc(C(=N)N)ccc3[nH]2)cc1`: 848, 24.7 °C, 31 nM and 26300 nM.
Regarding `c1cc2nc(-c3ccc(C4=NCCN4)s3)[nH]c2cc1C1=NCCN1`, the “Ratio IC50” value in series [1] was found to be 1925. In addition, the thermal shift (ΔTm) in series [2] was 26 °C. This compound also displayed an IC50 in series [3] of 67 nM. For the same compound, the IC50 at 70 h in series [4] worked out at 129000 nM.
The matching figures for `Cn1c(-c2ccc(C(=N)N)cc2)nc2cc(C(=N)N)ccc21`: >11266, 8 °C, 15 nM and > 169000 nM.
With `N=C(N)c1ccc(-c2cc3ccc(C(=N)N)cc3[nH]2)cc1` [DAPI], in series [1], the “Ratio IC50” value amounted to 48. For the same compound, the thermal shift (ΔTm) in series [2] is > 27 °C. Besides, the IC50 at 70 h in series [4] is 860 nM.

These data come from ChEMBL document CHEMBL3868620, “Synthesis, DNA binding and antitrypanosomal activity of benzimidazole analogues of DAPI” (Bioorg Med Chem Lett, 2016).
